# Data: PMC4581192, “Fenarimol, a Pyrimidine-Type Fungicide, Inhibits Brassinosteroid Biosynthesis” (International Journal of Molecular Sciences, 2015)
# Molecular target: T1, CYP90D1 (Arabidopsis thaliana, UniProt Q94IA6)
# T1 construct: DNA fragment encoding CYP90D1 mature protein; expressed from pCold-GST in E. coli, fusion protein cleaved with HRV3C protease
# T1 sequence (Q94IA6 1-491): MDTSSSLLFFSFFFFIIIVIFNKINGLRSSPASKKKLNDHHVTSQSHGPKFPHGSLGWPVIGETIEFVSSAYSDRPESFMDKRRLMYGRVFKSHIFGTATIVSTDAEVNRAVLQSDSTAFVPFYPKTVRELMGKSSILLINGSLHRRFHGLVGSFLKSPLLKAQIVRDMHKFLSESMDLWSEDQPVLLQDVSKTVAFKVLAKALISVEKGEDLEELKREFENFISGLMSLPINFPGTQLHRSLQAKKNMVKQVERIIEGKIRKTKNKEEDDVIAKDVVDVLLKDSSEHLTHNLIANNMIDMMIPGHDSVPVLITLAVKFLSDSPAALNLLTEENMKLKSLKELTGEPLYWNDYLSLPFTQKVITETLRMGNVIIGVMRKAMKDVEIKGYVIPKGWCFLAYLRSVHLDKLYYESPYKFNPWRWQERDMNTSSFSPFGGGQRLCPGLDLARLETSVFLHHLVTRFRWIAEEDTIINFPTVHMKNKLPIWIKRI
# Experiment: optical difference spectroscopy (type II spectral titration) of purified recombinant CYP90D1
# Type: binding
structure (smiles),measurement,value
"OC(c1ccc(Cl)cc1)(c1cncnc1)c1ccccc1Cl (stereo not shown) [FM, fenarimol]",Kd,790 nM
